In ChEMBL document CHEMBL3046607, “Synthesis and Herbicidal Activity of New 1-Alkyl-3-aryloxypyrazole-4-carboxamide Derivatives” (J Pestic Sci, 2004):
Calls of active or inactive are those of the source. The calls are words filed in the database; no cut-off is given here.

What was measured:
Elatine triandra [1] = experiment: Post-emergence herbicidal activity against Elatine triandra assessed as bleaching of stem/leaf parts; assay type: functional, organism-based; further: test concentration or dose not given here
Ammannia multiflora [2] = experiment: Post-emergence herbicidal activity against Ammannia multiflora assessed as bleaching of stem/leaf parts; assay type: functional, organism-based
Rotala indica [3] = experiment: Post-emergence herbicidal activity against Rotala indica assessed as bleaching of stem/leaf parts; assay type: functional, organism-based
Lindernia procumbens [4] = experiment: Post-emergence herbicidal activity against Lindernia procumbens assessed as bleaching of stem/leaf parts; assay type: functional, organism-based; further: test concentration or dose not given here
[5] = test system: Schoenoplectiella juncoides; experiment: Post-emergence herbicidal activity against Schoenoplectiella juncoides assessed as bleaching of stem/leaf parts; assay type: functional, organism-based; further: test concentration or dose not given here
Ammannia multiflora [6] = experiment: Pre-emergence herbicidal activity against Ammannia multiflora at 500 g a.i/ha measured after 14 days; assay type: functional, organism-based
Elatine triandra [7] = experiment: Pre-emergence herbicidal activity against Elatine triandra at 500 g a.i/ha measured after 14 days; assay type: functional, organism-based
Oryza sativa = experiment: Phytotoxicity against Oryza sativa cv. Koshihikari (rice) at 500 g a.i/ha measured after 14 days; assay type: organism-based; settings: in vivo, 336 h
Rotala indica [8] = experiment: Pre-emergence herbicidal activity against Rotala indica at 500 g a.i/ha measured after 14 days; assay type: functional, organism-based
Lindernia procumbens [9] = experiment: Pre-emergence herbicidal activity against Lindernia procumbens at 500 g a.i/ha measured after 14 days; assay type: functional, organism-based
[10] = test system: Schoenoplectiella juncoides; experiment: Pre-emergence herbicidal activity against Schoenoplectiella juncoides at 500 g a.i/ha measured after 14 days; assay type: functional, organism-based
Pontederia vaginalis [11] = experiment: Pre-emergence herbicidal activity against Monochoria vaginalis at 500 g a.i/ha measured after 14 days; assay type: functional, organism-based
Cyperus difformis [12] = experiment: Pre-emergence herbicidal activity against Cyperus difformis at 500 g a.i/ha measured after 14 days; assay type: functional, organism-based
Echinochloa oryzicola [13] = experiment: Pre-emergence herbicidal activity against Echinochloa oryzicola at 500 g a.i/ha measured after 14 days; assay type: functional, organism-based
Lindernia procumbens [14] = experiment: Pre-emergence herbicidal activity against Lindernia procumbens assessed as bleaching of stem/leaf parts; assay type: functional, organism-based
Pontederia vaginalis [15] = experiment: Pre-emergence herbicidal activity against Monochoria vaginalis assessed as bleaching of stem/leaf parts; assay type: functional, organism-based
[16] = test system: Schoenoplectiella juncoides; experiment: Pre-emergence herbicidal activity against Schoenoplectiella juncoides assessed as bleaching of stem/leaf parts; assay type: functional, organism-based
Cyperus difformis [17] = experiment: Pre-emergence herbicidal activity against Cyperus difformis assessed as bleaching of stem/leaf parts; assay type: functional, organism-based
Echinochloa oryzicola [18] = experiment: Pre-emergence herbicidal activity against Echinochloa oryzicola assessed as bleaching of stem/leaf parts; assay type: functional, organism-based
Cyperus difformis [19] = experiment: Post-emergence herbicidal activity against Cyperus difformis assessed as bleaching of stem/leaf parts; assay type: functional, organism-based; further: test concentration or dose not given here
Pontederia vaginalis [20] = experiment: Post-emergence herbicidal activity against Monochoria vaginalis assessed as bleaching of stem/leaf parts; assay type: functional, organism-based
Echinochloa oryzicola [21] = experiment: Post-emergence herbicidal activity against Echinochloa oryzicola assessed as bleaching of stem/leaf parts; assay type: functional, organism-based
Ammannia multiflora [22] = experiment: Pre-emergence herbicidal activity against Ammannia multiflora assessed as bleaching of stem/leaf parts; assay type: functional, organism-based
Elatine triandra [23] = experiment: Pre-emergence herbicidal activity against Elatine triandra assessed as bleaching of stem/leaf parts; assay type: functional, organism-based
Rotala indica [24] = experiment: Pre-emergence herbicidal activity against Rotala indica assessed as bleaching of stem/leaf parts; assay type: functional, organism-based

SMILES	Activity (Elatine triandra [1])	Activity (Ammannia multiflora [2])	Activity (Rotala indica [3])	Activity (Lindernia procumbens [4])	Activity [5]	Activity (Ammannia multiflora [6])	Activity (Elatine triandra [7])	Activity (Oryza sativa)	Activity (Rotala indica [8])	Activity (Lindernia procumbens [9])	Activity [10]	Activity (Pontederia vaginalis [11])	Activity (Cyperus difformis [12])	Activity (Echinochloa oryzicola [13])	Activity (Lindernia procumbens [14])	Activity (Pontederia vaginalis [15])	Activity [16]	Activity (Cyperus difformis [17])	Activity (Echinochloa oryzicola [18])	Activity (Cyperus difformis [19])	also measured
Cn1cc(NC(=O)c2ccccc2)c(Oc2cccc(C(F)(F)F)c2)n1	Active	Active	Active	Active	Active	inactive	inactive	Non-toxic	inactive	inactive	inactive	inactive	inactive	Active	Active	Active	Active	Active	Active	Active	Activity (Pontederia vaginalis [20]): Active; Activity (Echinochloa oryzicola [21]): Active; Activity (Ammannia multiflora [22]): Active; Activity (Elatine triandra [23]): Active; Activity (Rotala indica [24]): Active
Cn1cc(C(=O)NC2CC2)c(Oc2cccc(C(F)(F)F)c2)n1	Active	Active	Active	Active	Active	inactive	inactive	Non-toxic	inactive	inactive	inactive	inactive	inactive	inactive	Active	Active	Active	Active	Active	Active	Activity (Pontederia vaginalis [20]): Active; Activity (Echinochloa oryzicola [21]): Active; Activity (Ammannia multiflora [22]): Active; Activity (Elatine triandra [23]): Active; Activity (Rotala indica [24]): Active
Cn1cc(C(=O)N2CCCC2)c(Oc2cccc(C(F)(F)F)c2)n1	Active	Active	Active	Active	Active	inactive	inactive	Non-toxic	inactive	inactive	inactive	inactive	inactive	inactive	Active	Active	Active	Active	Active	Active	Activity (Pontederia vaginalis [20]): Active; Activity (Echinochloa oryzicola [21]): Active; Activity (Ammannia multiflora [22]): Active; Activity (Elatine triandra [23]): Active; Activity (Rotala indica [24]): Active
C#CCNC(=O)c1cn(C)nc1Oc1cccc(C(F)(F)F)c1	Active	Active	Active	Active	Active	inactive	inactive	Non-toxic	inactive	inactive	inactive	inactive	inactive	inactive	Active	Active	Active	Active	Active	Active	Activity (Pontederia vaginalis [20]): Active; Activity (Echinochloa oryzicola [21]): Active; Activity (Ammannia multiflora [22]): Active; Activity (Elatine triandra [23]): Active; Activity (Rotala indica [24]): Active
Cn1cc(C(=O)NCC2CCCO2)c(Oc2cccc(C(F)(F)F)c2)n1 (stereo not given)	Active	Active	Active	Active	Active	inactive	inactive	Non-toxic	inactive	inactive	inactive	inactive	inactive	inactive	Active	Active	Active	Active	Active	Active	Activity (Pontederia vaginalis [20]): Active; Activity (Echinochloa oryzicola [21]): Active; Activity (Ammannia multiflora [22]): Active; Activity (Elatine triandra [23]): Active; Activity (Rotala indica [24]): Active
Cn1cc(C(=O)Nc2ccc(F)cc2F)c(Oc2cc(C(F)(F)F)ccn2)n1	Active	Active	Active	Active	Active	inactive	inactive	Non-toxic	inactive	inactive	inactive	inactive	inactive	inactive	Active	Active	Active	Active	Active	Active	Activity (Pontederia vaginalis [20]): Active; Activity (Echinochloa oryzicola [21]): Active; Activity (Ammannia multiflora [22]): Active; Activity (Elatine triandra [23]): Active; Activity (Rotala indica [24]): Active
Cn1cc(C(=O)NCc2cccc(Cl)c2)c(Oc2cccc(C(F)(F)F)c2)n1	Active	Active	Active	Active	Active	inactive	inactive	Non-toxic	inactive	inactive	inactive	inactive	inactive	inactive	Active	Active	Active	Active	Active	Active	Activity (Pontederia vaginalis [20]): Active; Activity (Echinochloa oryzicola [21]): Active; Activity (Ammannia multiflora [22]): Active; Activity (Elatine triandra [23]): Active; Activity (Rotala indica [24]): Active
